The test system of data set [1] is SARS-CoV-2. The data set is described as follows: Antiviral assay in Vero E6 cells, immunofluorescence of nucleocapsid protein. The following applies: 72 h post infection; for IC50: immunofluorescence, MOI 0.1, read-out: IC50, inhibition of SARS-CoV-2 replication. The class given is cell-based.
Data set [2] relates to SARS-CoV-2. The data set is described as follows: Antiviral assay in human lung A549 cells (ACE2, TMPRSS2), immunofluorescence of nucleocapsid protein. The class given is cell-based. The following applies: human lung A549 cells expressing ACE2 and TMPRSS2.
Data set [3] relates to SARS-CoV-2. The data set is described as follows: Viral RNA by qRT-PCR in culture medium of Vero E6 cells. Format: cell-based.
Data set [4] deals with SARS-CoV-2. The data set is described as follows: Viral RNA by qRT-PCR in culture medium of human lung A549 cells. Format: cell-based. On the technique in general: Real-time PCR tracks product formation cycle by cycle.
For data set [5] the following is noted: blood of patients in both clinical studies; cited from earlier work.
In data set [6] the test system is hospitalized COVID-19 patients. The following applies: 1620 patients; total median dose of 136 mg, oral or IV once daily, 6 days; cited from earlier work.
Data set [7] has as its system non-hospitalized patients. As to conditions: 10 non-hospitalized patients; oral 240 mg per day for a median of 11 days; cited from earlier work.
The test system of data set [8] is SARS-CoV-2. The following applies: Vero E6 cells; famotidine 0.32–200 µM; remdesivir 0.1–62.5 µM.
The nature of a further data set: in vitro. The following applies: human.

For the compound `NC(N)=Nc1nc(CSCCC(N)=NS(N)(=O)=O)cs1` [Famotidine], the “inhibition of SARS-CoV-2 replication (in words)” value is “did not produce any measurable inhibition” in the data set on SARS-CoV-2 [1] (concentrations of up to 200 μM) and “no measurable effect” in the data set on SARS-CoV-2 [2] (0.32–200 µM, 72 h). The “effect on viral RNA copies (qRT-PCR, E gene)” value in the data set on SARS-CoV-2 [3] and in the data set with SARS-CoV-2 [4] was “no effect” each time. Further, the peak plasma concentrations in [5] was 0.5 to 2 µM. Also, the “risk of death or intubation” value in [6] is “reduced risk of death or intubation”. Further, the “patient-reported symptoms such as shortness of breath and cough” value in [7] is on record as “patient-reported improvements in symptoms”. Also, in the data set on SARS-CoV-2 [8], the “antiviral effect on virus yield (plaque formation)” value is listed as “no effect on limiting virus plaque formation”.
`CCC(CC)COC(=O)[C@H](C)N[P@](=O)(OC[C@H]1O[C@@](C#N)(c2ccc3c(N)ncnn23)[C@H](O)[C@@H]1O)Oc1ccccc1` [Remdesivir, remdesivir]: the concentration for half-maximal inhibition (IC50) (commonly the midpoint of a concentration-inhibition curve) in the data set on SARS-CoV-2 [1] (Severe acute respiratory syndrome coronavirus 2, Vero C1008, 72 h) turned out to be 3.3 µM; with SARS-CoV-2 [1], 3.37 µM; in the data set on SARS-CoV-2 [2] (Severe acute respiratory syndrome coronavirus 2, immunofluorescence, 72 h post infection, MOI 0.1, read-out: IC50, inhibition of SARS-CoV-2 replication) it was 0.43 µM. Moreover, the “effect on viral RNA copies (qRT-PCR, E gene)” value with SARS-CoV-2 [3] and in the data set on SARS-CoV-2 [4] was “dose-dependent” each time. Moreover, the “cytotoxicity (in words)” value in the data set on Vero E6 cells and with human lung A549 cells was “dose-dependent cytotoxicity at higher concentrations” each time. For the same compound, in the data set “in vitro”, the CC50 amounted to 14.6 µM. The “antiviral effect on virus yield (plaque formation)” value with SARS-CoV-2 [8] is “dose-dependent antiviral effect”.

Values taken from article PMC7940615 (Scientific Reports, 2021).
